The values that follow come from patent publication US20140073694A1, “CYSTAMINE ANALOGUES FOR THE TREATMENT OF PARKINSON'S DISEASE” (UNIVERSITE LAVAL, priority 2011, published 2014).

Entries after “also recorded” stand apart in the source; their conditions may differ.

A short description of this data set: Plasma and brain metabolite levels by HPLC after a single i.p. cystamine injection (dose-response study). The class given is in vivo, C57BL/6 mice. As to the method: Young adult (9-week old, 25 g) male C57BL/6 mice were purchased from Charles River Laboratories (Montréal, QC, Canada). Animals were housed four per cage under standard conditions with free access to food and water, randomized and handled under the same conditions by one investigator. All experiments were performed in accordance with the Canadian Council on Animal Care and were approved by the Institutional Committee of the Centre Hospitalier de l'Université Laval (CHUL). Throughout the experiment, the health status of all mice included in the study was closely monitored. To clearly identify the active intermediate following cystamine injection, as well as to understand its systemic and cerebral metabolism, a single intraperitoneal (i.p.) injection of cystamine was administered to normal adult C57BL/6 male mice using three different doses: 10, 50, and 200 mg/kg, as determined in prior publications (Tremblay et al. 2006; Gibrat et al. 2010). These doses were ultimately compared with saline injections. Cystamine was dissolved in sterile saline (0.9%) and injected 1, 3, 12, 24 and 48 h before killing. Animals were sacrificed under deep anesthesia with ketamine/xylazine and perfused via intracardiac infusion with 0.1 M phosphate-buffered saline. After intracardiac perfusion, brains were collected, snap-frozen in 2-methyl-butane and then stored at −80° C. until cryostat dissection for HPLC analyses. A total of 200 mice were assigned to this study (n=10 per group).
HPLC coupled to fluorescence detection was used in cysteine and cysteamine quantification of both sets of experiments: the dose-response study and in situ cerebral perfusion (ISCP) procedures. Frontal cortex were homogenized in 200 μL of NaHCO3 and then centrifuged at 15 700 g (4° C.) for 20 min. Fifty μl of supernatant were directly derivatized with 30 μL of 4-fluoro-7-sulfamoylbenzo-furazan (ABD-F) reagent. The alkylation reaction was completed at 55° C. for 15 min and stopped with 4.9 μL HCl 12 N. After a 10-min centrifugation at 7500 g (4° C.), the supernatant were immediately injected into the chromatograph consisting of a Waters 717 plus autosampler automatic injector set at 4° C., a Waters 1525 binary pump equipped with an Atlantis dC18 ([…]; 3.9×150 mm) column, and a Waters 2487 Dual Absorbance detector (Waters limited, Lachine, QC, Canada). The excitation was set at 385 nm and emission at 515 nm. The mobile phase, which consisted in 2.5% methanol and 0.1 M ammonium acetate adjusted at pH 4.0, was delivered at 1 mL/min (Santa et al. 2006). Peaks were identified and quantified using Breeze software (Waters limited). HPLC quantifications were normalized to protein concentrations. Protein measurements were determined with a bicinchoninic acid protein assay kit (Pierce, Rockford, Ill., USA) as described by the manufacturer's protocol.
Taurine and hypotaurine were measured by HPLC coupled with UV detection. Supernatant from NaHCO3 brain (bregma 1.54 to −0.58 mm) extracts (see section above for details) were directly derivatized with the reagent dansyl chloride (Sigma-Aldrich, St. Louis, Mo., USA) based on modified published methods (Saller and Czupryna 1989; Calon et al. 1999). Briefly, 50 μL of dansyl chloride (1.2 mg/mL) and 50 μL of sample or standard solution were mixed and then incubated for 30 min at 90° C. After a 10-min centrifugation at 7500 g (4° C.), supernatants were immediately injected into the chromatograph described above. Absorbance was set at 337 nm and the sensitivity at 0.5 absorbance unit full scale. […] Results were obtained using the same method as described above.

Setting [1] is: single i.p. cystamine 10, 50 or 200 mg/kg.
Where [2] appears, read: single i.p. cystamine 10, 50 or 200 mg/kg, 1-48 h.

Consider `NCCSSCCN` [cystamine, Cystamine], for which the plasma cysteamine level entry (cystamine-treated mice, single i.p. dose) is listed as “undetectable”. Further, the brain cysteamine level result is, setting by setting: (single i.p. cystamine 50 mg/kg, 1 h post-injection, vs saline) “significant increases; also recorded: significantly increased”; (single i.p. cystamine 200 mg/kg, 1 h post-injection, vs saline) “significant increase”; (single i.p. cystamine (200 mg/kg per FIG. 7), 3 h post-injection, vs saline) “remained significantly elevated; also recorded: significant increase”; (single i.p. cystamine, all three doses (10, 50, 200 mg/kg), each time point) “marked increased in brain cysteamine”. For the same compound, the plasma hypotaurine level entry under setting [1] is reported as “remained under or close to the detection threshold”. Also, the plasma taurine level entry under setting [1] is reported as “remained under or close to the detection threshold”. Also, under setting [2], the brain hypotaurine level result is “no significant alteration”. Moreover, the brain taurine level entry under setting [2] is on record as “no significant alteration”. Moreover, the plasma cysteine level entry (single i.p. cystamine, up to 200 mg/kg (data not shown)) is listed as “did not affect”. The brain cysteine level result (single i.p. cystamine, up to 200 mg/kg, all time points) is listed as “did not affect; also recorded: stable”.
